The test system of this assay is IL-1β cytokine output from THP-1s. Put plainly: THP-1 AlphaLISA IL-1β cytokine assay. It counts as cell-based, human. How it is done:
Measuring Inhibitory Effects on IL-1β and IL-6 Cytokine Output from THP-1s
The cytokine inhibition profiles of compounds of formula (IW-1) were determined in a differentiated THP-1 cell assay. All assays were performed in RPMI-1640 growth medium (Gibco), supplemented with 10% fetal bovine serum (FBS; Gibco), 1% penicillin-streptomycin and 1% sodium pyruvate unless specified otherwise. The IL-1β and IL-6 cytokine inhibition assays were each run in a background of differentiated THP-1 cells as described below. All reagents described were from Sigma-Aldrich unless specified otherwise. Compounds were prepared as 10 mM DMSO stocks.
THP-1 cells were expanded as a suspension up to 80% confluence in appropriate growth medium. Cells were harvested, suspended, and treated with an appropriate concentration of phorbol 12-myristate 13-acetate (PMA) over a 72 hr period (37° C./5% CO2).
Following 72 hrs of THP-1 cell incubation, cellular medium was removed and replaced with fresh growth media containing 1% of FBS. Working concentrations of compounds were prepared separately in 10% FBS treated growth medium and pre-incubated with the cells for 30 minutes (37° C./5% CO2). Following the 30 minute compound pre-incubation, THP-1s were treated with an appropriate concentration of LPS and the THP-1s were subsequently incubated for a 24 hr period (37° C./5% CO2). An appropriate final concentration of Nigericin was then dispensed into the THP-1 plates and incubated for 1 hour (37° C./5% CO2) before THP-1 supernatants were harvested and collected in separate polypropylene 96-well holding plates.
Reagents from each of the IL-1β and IL-6 commercial kits (Perkin Elmer) were prepared and run according to the manufacturer's instructions. Subsequently, fluorescence signal detection in a microplate reader was measured (EnVision® Multilabel Reader, Perkin Elmer).
Percentage inhibition was calculated per cytokine by normalising the sample data to the high and low controls used within each plate (+/−LPS respectively). Percentage inhibition was then plotted against compound concentration and the 50% inhibitory concentration (IC50) was determined from the resultant concentration-response curve.
(In general: In Alpha technology, singlet oxygen from a donor bead excites a nearby acceptor bead.)

[1] abbreviates: Homo sapiens, THP-1, PMA-differentiated THP-1 cells, LPS 24 hr then Nigericin 1 hour, read-out: IL-1β (IC50).
Setting [2] is: Homo sapiens, PMA-differentiated THP-1 cells, LPS 24 hr then Nigericin 1 hour, read-out: IL-1β (IC50).
[3] abbreviates: PMA-differentiated THP-1 cells, LPS 24 hr then Nigericin 1 hour, read-out: IL-1β (IC50).

Where two headings read alike, the source gives them in different places.

Experimental findings from patent publication US12390437B2, “Itaconic acid derivatives and uses thereof intreating an inflammatory disease or a disease associated with an undesirable immune response” (Sitryx Therapeutics Limited, priority 2019, dated 2025) are described below.

As a reminder, the IC50 is the point on the concentration scale where inhibition reaches its midpoint.

On to `C=C(CC(=O)OC(CCC)CCC)C(=O)OCC(=O)O` [Example 148, 2-((4-(heptan-4-yloxy)-2-methylene-4-oxobutanoyl)oxy)acetic acid], for which the IC50 under setting [1] was 29.6 µM. Regarding `C=C(CC(=O)O[C@@H](C)c1ccc(C(F)(F)F)cc1)C(=O)OCC(=O)O` [Example 201, (S)-2-((2-methylene-4-oxo-4-(1-(4-(trifluoromethyl)phenyl)ethoxy)butanoyl)oxy) acetic acid], the IC50 under setting [1] was 24.6 µM. On the same count and under the same terms, the figure for `C=C(CC(=O)OC1CCCCC1)C(=O)OCc1nnn(C)n1` [Example 142, 4-cyclohexyl 1-((2-methyl-2H-tetrazol-5-yl)methyl) 2-methylenesuccinate] is 6.2 µM. For the compound `C=C(CC(=O)OC1CCCCC1)C(=O)OC/C=C/C(=O)O` [Example 123, (E)-4-((4-(cyclohexyloxy)-2-methylene-4-oxobutanoyl)oxy)but-2-enoic acid], for the setting “Homo sapiens, THP-1, read-out: IL-1β (IC50)”, the IC50 amounted to 19.5 µM. Turning to `C=C(C(=O)OCC(=O)O)C(OC)C(=O)OC1CCCCCCC1` (centres unmarked) [Example 171, 2-((4-(cyclooctyloxy)-3-methoxy-2-methylene-4-oxobutanoyl)oxy)acetic Acid], the IC50 under setting [2] was determined as 21.8 µM. Regarding `C=C(CC(=O)O[C@@H](C)CCCCCC)C(=O)OC(C)Cc1nnn[nH]1` (stereo partly drawn) [Example 141, 1-(1-(1H-tetrazol-5-yl)propan-2-yl) 4-((S)-octan-2-yl) 2-methylenesuccinate], the IC50 under setting [1] turned out to be 6.5 µM.

For `C=C(CC(=O)OC1CCCCCCC1)C(=O)OCC(C)(C)S(C)(=O)=O` [Example 132, 4-cyclooctyl 1-(2-methyl-2-(methylsulfonyl)propyl) 2-methylenesuccinate], under setting [1], the IC50 came out at 4.3 µM. On the same count and under the same terms, the figure for `C=C(CC(=O)O[C@H](C)CCCCCC)C(=O)O[C@H](CC(=O)O)C(F)(F)F` [Example 188, (R)-4,4,4-trifluoro-3-((2-methylene-4-(((R)-octan-2-yl)oxy)-4-oxobutanoyl)oxy)butanoic Acid] is 3.5 µM; for `C=C(CC(=O)OC1CCCCCCC1)C(=O)OCC(C)(C)S(=O)(=O)c1cccc(Cl)c1` [Example 131, 1-(2-((3-chlorophenyl)sulfonyl)-2-methylpropyl) 4-cyclooctyl 2-methylenesuccinate] it is 4.4 µM. For `C=C(CC(=O)OC1CCCCC1)C(=O)OCCS(=O)(=O)CCC(=O)O` [Example 124, 3-((2-((4-(cyclohexyloxy)-2-methylene-4-oxobutanoyl)oxy)ethyl)sulfonyl)propanoic acid], the IC50 under setting [2] came to 52.4 µM. For the compound `C=C(CC(=O)OC1C(C)(C)CC1(C)C)C(=O)OCCC(=O)O` [Example 207, 3-((2-methylene-4-oxo-4-(2,2,4,4-tetramethylcyclobutoxy)butanoyl)oxy) propanoic Acid], the IC50 under setting [1] is 100 µM. On the same count and under the same terms, the value for `C=C(CC(=O)OC(C)c1cc(Cl)cc(Cl)c1)C(=O)OCC(=O)O` (single isomer, unassigned; isomer 1) [Example 198, 2-((4-(1-(3,5-dichlorophenyl)ethoxy)-2-methylene-4-oxobutanoyl)oxy)acetic acid (Isomer 1)] was 22 µM; that for `C=C(CC(=O)OC1CCCCCCC1)C(=O)OCC(=O)N(C)CC(=O)O` [Example 103, N-(2-((4-(cyclooctyloxy)-2-methylene-4-oxobutanoyl)oxy)acetyl)-N-methylglycine] was 55.5 µM. On the same count and under the same terms, the figure for `C=C(CC(=O)OCCCCCC)C(=O)OC1CCN(S(C)(=O)=O)CC1` [Example 76, 4-hexyl 1-(1-(methylsulfonyl)piperidin-4-yl) 2-methylenesuccinate] is 4.1 µM. The same measure, in the same setting: the figure for `C=C(CC(=O)OC(C)c1cc(Cl)cc(Cl)c1)C(=O)OCC(=O)O` (centres unmarked) [Example 176, 2-((4-(1-(3,5-dichlorophenyl)ethoxy)-2-methylene-4-oxobutanoyl)oxy)acetic acid] is 12 µM. `C=C(CC(=O)OC1C2CC3CC(C2)CC1C3)C(=O)OCC(=O)O` (centres unmarked) [Example 149, 2-((4-((adamantan-2-yl)oxy)-2-methylene-4-oxobutanoyl)oxy)acetic acid]: the IC50 under setting [1] was found to be 12.1 µM.

As for `C=C(CC(=O)OC(C)c1cc(Cl)cc(Cl)c1)C(=O)OCC(=O)O` (single isomer, unassigned; isomer 2) [Example 199, 2-((4-(1-(3,5-dichlorophenyl)ethoxy)-2-methylene-4-oxobutanoyl)oxy)acetic acid (Isomer 2)], the IC50 under setting [3] turned out to be 18.3 µM. `C=C(CC(=O)O[C@H](C)CCCCCC)C(=O)OC(C)Cc1nnn[nH]1` (stereo partly drawn) [Example 140, 1-(1-(1H-tetrazol-5-yl)propan-2-yl) 4-((R)-octan-2-yl) 2-methylenesuccinate]: the concentration for half-maximal inhibition (IC50) under setting [1] was 7.8 µM.

On to `C=C(CC(=O)O[C@H](C)CCCCCC)C(=O)O[C@H]1[C@@H]2CC[C@H]1CN(S(C)(=O)=O)C2` [Example 186, 1-((endo)-3-(methylsulfonyl)-3-azabicyclo[3.2.1]octan-8-yl) 4-((R)-octan-2-yl) 2-methylenesuccinate], for which the IC50 under setting [1] stood at 3.5 µM.

As to `C=C(CC(=O)OC1(C)CC2(CCCCC2)C1)C(=O)OCC(=O)O` [Example 195, 2-((2-methylene-4-((2-methylspiro[3.5]nonan-2-yl)oxy)-4-oxobutanoyl)oxy)acetic acid], the IC50 under setting [1] stood at 24.3 µM. As for `C=C(CC(=O)OC1CC2CCC1(C)C2(C)C)C(=O)OCC(=O)O` (stereo not drawn) [Example 196, 2-((2-methylene-4-oxo-4-(((exo)-1,7,7-trimethylbicyclo[2.2.1]heptan-2-yl)oxy)butanoyl)oxy)acetic acid], the IC50 under setting [3] amounted to 18.8 µM. Consider `C=C(CC(=O)OC(CC)CCCCC)C(=O)OCC(=O)O` (centres unmarked) [Example 146, 2-(2-methylene-4-(octan-3-yloxy)-4-oxobutanoyloxy)acetic acid], for which the 50% inhibitory concentration (IC50) under setting [1] came to 8.5 µM.

Turning to `C=C(C(=O)OCC(=O)O)C(C)C(=O)OC1CCCCCCC1` (centres unmarked) [Example 168, 2-((4-(cyclooctyloxy)-3-methyl-2-methylene-4-oxobutanoyl)oxy)acetic acid], under setting [1], the IC50 amounted to 49.3 µM.
